Data from patent publication US9499535B2, “Kinase inhibitors” (ORIGENIS GMBH, priority 2011, dated 2016).

Legend:
SYK kinase = biological target: T1, SYK kinase (Homo sapiens, UniProt P43405); experiment: SYK assay (OMNIA Kinase Assay, Invitrogen); assay type: biochemical; conditions: apparent Ki calculated from the IC50 using the Cheng-Prusoff equation; 1 mM ATP, 10 μM Peptide Substrate; read-out: SYK Activities: Ki
T1 construct: purchased Invitrogen, Carlsbad
In short: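 Continuous SOX-fluorescence (Omnia) readout of Tyr 7 peptide (10 μM) phosphorylation with 1 mM ATP and 0.2 mM DTT at 30° C, started by SYK addition. Fluorescence (λex 360/λem 485 nm) was read every 30 s for 30 min. IC50 from velocity vs concentration; apparent Ki via Cheng-Prusoff.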

LRRK2 = LRRK2 (Homo sapiens, UniProt Q5S007); experiment: LRRK2 assay (LanthaScreen Eu Kinase Binding Assay); conditions: 5 nM LRRK2, 10 nM tracer 236, RT 1 h; read-out: LRRK2 Activites: IC50
LRRK2, sequence (Q5S007 970-2527 limits assumed): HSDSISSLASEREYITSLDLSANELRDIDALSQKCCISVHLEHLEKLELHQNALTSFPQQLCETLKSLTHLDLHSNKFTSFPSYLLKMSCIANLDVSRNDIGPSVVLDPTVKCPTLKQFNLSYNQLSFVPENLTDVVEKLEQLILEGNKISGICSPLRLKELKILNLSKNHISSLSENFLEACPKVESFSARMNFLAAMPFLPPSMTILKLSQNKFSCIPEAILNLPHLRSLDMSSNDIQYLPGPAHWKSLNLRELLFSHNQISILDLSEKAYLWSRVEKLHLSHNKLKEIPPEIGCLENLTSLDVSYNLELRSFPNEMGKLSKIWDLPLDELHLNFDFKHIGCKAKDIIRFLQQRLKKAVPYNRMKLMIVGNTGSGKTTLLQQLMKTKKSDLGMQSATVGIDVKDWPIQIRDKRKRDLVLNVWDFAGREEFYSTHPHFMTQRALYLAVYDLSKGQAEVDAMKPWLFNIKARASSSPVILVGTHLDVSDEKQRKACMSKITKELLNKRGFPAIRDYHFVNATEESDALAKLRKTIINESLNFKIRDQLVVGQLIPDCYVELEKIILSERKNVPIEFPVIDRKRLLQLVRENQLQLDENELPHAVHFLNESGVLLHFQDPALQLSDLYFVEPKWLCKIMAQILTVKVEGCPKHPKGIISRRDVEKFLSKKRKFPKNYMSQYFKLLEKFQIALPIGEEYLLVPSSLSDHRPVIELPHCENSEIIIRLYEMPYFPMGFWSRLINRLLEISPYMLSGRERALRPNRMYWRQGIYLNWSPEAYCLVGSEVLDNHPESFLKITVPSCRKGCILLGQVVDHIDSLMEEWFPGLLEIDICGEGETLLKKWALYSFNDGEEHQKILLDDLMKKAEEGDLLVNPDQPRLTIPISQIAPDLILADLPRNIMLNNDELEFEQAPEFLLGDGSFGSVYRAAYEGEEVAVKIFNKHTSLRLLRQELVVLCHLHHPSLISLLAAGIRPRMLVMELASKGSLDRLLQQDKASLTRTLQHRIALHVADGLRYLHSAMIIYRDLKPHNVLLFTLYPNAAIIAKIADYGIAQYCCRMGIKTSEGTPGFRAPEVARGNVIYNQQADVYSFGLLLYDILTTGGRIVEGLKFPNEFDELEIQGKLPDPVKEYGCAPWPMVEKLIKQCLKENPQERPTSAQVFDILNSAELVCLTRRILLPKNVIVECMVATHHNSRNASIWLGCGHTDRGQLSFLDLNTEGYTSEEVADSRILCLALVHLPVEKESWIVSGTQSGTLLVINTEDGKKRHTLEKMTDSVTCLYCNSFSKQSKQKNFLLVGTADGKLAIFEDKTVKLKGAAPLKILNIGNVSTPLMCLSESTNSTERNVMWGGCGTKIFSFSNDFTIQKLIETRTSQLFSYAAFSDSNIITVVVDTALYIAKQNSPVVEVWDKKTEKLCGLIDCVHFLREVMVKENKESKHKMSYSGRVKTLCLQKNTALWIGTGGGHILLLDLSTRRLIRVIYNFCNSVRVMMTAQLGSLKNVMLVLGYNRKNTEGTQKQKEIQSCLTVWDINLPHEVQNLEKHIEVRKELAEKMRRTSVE
In short: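 Kinase binding was detected by europium anti-tag antibody FRET with a competing tracer, so inhibitor binding lowers the FRET signal. IC50 came from a variable-slope sigmoidal fit of emission ratio against inhibitor concentration.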

MYLK = MYLK (Homo sapiens, UniProt Q15746); experiment: MYLK assay (LanthaScreen Eu Kinase Binding Assay); conditions: 5 nM MYLK, 30 nM tracer 236, RT 1 h; read-out: MYLK Activites: IC50
MYLK, sequence (Q15746 whole entry): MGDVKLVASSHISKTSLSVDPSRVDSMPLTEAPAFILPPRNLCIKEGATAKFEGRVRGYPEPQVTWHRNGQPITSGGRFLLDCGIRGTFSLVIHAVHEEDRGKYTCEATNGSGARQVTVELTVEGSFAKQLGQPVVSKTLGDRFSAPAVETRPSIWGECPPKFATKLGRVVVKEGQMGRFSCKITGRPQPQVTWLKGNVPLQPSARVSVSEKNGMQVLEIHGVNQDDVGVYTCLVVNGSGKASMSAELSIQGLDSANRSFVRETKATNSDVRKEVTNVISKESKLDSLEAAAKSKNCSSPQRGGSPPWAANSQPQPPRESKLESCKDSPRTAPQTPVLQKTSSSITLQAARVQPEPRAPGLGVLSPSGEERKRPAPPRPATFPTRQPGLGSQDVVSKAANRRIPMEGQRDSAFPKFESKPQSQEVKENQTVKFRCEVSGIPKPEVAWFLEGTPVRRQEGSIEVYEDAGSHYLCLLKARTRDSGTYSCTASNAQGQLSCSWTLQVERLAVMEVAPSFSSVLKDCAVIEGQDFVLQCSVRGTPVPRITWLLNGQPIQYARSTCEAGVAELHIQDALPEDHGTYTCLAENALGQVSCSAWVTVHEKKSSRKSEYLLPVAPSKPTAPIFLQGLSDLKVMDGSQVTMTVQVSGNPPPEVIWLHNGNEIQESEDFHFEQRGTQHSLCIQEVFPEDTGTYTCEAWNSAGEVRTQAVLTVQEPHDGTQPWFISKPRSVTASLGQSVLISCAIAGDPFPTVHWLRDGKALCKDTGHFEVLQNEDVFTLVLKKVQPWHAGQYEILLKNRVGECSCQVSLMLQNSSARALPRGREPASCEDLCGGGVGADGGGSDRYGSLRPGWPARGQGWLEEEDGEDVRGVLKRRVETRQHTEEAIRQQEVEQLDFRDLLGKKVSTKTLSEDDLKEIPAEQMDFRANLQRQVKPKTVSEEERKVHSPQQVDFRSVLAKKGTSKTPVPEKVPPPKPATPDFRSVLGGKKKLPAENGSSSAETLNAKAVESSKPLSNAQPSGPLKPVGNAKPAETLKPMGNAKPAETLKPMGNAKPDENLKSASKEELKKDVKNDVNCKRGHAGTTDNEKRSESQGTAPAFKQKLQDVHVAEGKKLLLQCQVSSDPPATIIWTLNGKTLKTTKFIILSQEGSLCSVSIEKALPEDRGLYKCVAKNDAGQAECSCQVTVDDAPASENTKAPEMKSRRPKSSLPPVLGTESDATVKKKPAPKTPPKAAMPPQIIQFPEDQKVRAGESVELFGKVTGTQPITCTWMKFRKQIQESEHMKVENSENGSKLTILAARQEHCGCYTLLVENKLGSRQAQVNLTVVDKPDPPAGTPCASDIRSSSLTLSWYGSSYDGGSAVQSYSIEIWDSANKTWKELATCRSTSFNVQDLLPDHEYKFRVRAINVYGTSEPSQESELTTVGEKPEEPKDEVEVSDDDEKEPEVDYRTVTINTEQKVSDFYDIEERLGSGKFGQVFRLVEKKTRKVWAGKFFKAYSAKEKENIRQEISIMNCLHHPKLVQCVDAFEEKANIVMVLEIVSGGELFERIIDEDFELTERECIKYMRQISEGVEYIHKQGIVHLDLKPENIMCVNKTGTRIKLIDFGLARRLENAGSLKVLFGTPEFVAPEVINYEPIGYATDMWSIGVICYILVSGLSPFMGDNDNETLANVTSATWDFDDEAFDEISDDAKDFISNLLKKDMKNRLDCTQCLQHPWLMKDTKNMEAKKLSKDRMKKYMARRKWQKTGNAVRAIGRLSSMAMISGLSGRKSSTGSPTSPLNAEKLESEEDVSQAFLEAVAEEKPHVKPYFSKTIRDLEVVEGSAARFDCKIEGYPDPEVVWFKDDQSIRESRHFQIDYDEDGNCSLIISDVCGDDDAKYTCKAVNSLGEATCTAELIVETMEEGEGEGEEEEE
In short: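 TR-FRET tracer-displacement binding: 5 nM MYLK with 2 nM Eu-anti-GST antibody and 30 nM tracer 236 in kinase buffer A, 1 h at RT. The 665/615 nm emission ratio was plotted against inhibitor concentration; IC50 from variable-slope sigmoidal fit.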

Row | SMILES | Ki (SYK kinase) [nM] | IC50 (LRRK2) [nM] | IC50 (MYLK) [nM]
1 | COc1ccc2nc(Nc3ccc(N4CCN(C)CC4)c(Cl)c3)c3n[nH]cc3c2c1 [Example #195, [3-Chloro-4-(4-methyl-piperazin-1-yl)-phenyl]-(8-methoxy-2H-pyrazolo[3,4-c]quinolin-4-yl)-amine] | 10 to 100 | 100 to 1000 | < 5000
2 | COc1cccc2nc(Nc3cc(C4CC4)[nH]n3)c3n[nH]cc3c12 [Example #199, (5-Cyclopropyl-1H-pyrazol-3-yl)-(9-methoxy-2H-pyrazolo[3,4-c]quinolin-4-yl)-amine] | 10 to 100 | 10 to 100 | < 5000
3 | COc1cccc2nc(Nc3ccc(N4CCN(C)CC4)cc3)c3n[nH]cc3c12 [Example #201, (9-Methoxy-2H-pyrazolo[3,4-c]quinolin-4-yl)-[4-(4-methyl-piperazin-1-yl)-phenyl]-amine] | 10 to 100 | 100 to 1000 | < 5000
4 | COc1cccc2nc(Nc3ccc(N4CCOCC4)cc3)c3n[nH]cc3c12 [Example #202, (9-Methoxy-2H-pyrazolo[3,4-c]quinolin-4-yl)-(4-morpholin-4-yl-phenyl)-amine] | 10 to 100 | 10 to 100 | < 5000
5 | COc1cccc2nc(Nc3ccc4cn[nH]c4c3)c3n[nH]cc3c12 [Example #203, (1H-Indazol-6-yl)-(9-methoxy-2H-pyrazolo[3,4-c]quinolin-4-yl)-amine] | 10 to 100 | 10 to 100 | < 5000
6 | COc1ccc2nc(Nc3ccc(OC)nc3)c3n[nH]cc3c2c1 [Example #206, (8-Methoxy-2H-pyrazolo[3,4-c]quinolin-4-yl)-(6-methoxy-pyridin-3-yl)-amine] | 10 to 100 | 100 to 1000 | < 5000
7 | Cc1[nH]nc2c(Nc3ccc(N4CCN(C)CC4)cc3)nc3ccccc3c12 [Example #208, [4-(4-Methyl-piperazin-1-yl)-phenyl]-(1-methyl-2H-pyrazolo[3,4-c]quinolin-4-yl)-amine] | 10 to 100 | 100 to 1000 | < 5000
8 | Cc1[nH]nc2c(Nc3ccc4cn[nH]c4c3)nc3ccccc3c12 [Example #209, (1H-Indazol-6-yl)-(1-methyl-2H-pyrazolo[3,4-c]quinolin-4-yl)-amine] | < 10 | 10 to 100 | < 5000
9 | COc1ccc2nc(Nc3cccc(N4CCNCC4)c3)c3n[nH]cc3c2c1 [Example #221, (8-Methoxy-2H-pyrazolo[3,4-c]quinolin-4-yl)-(3-piperazin-1-yl-phenyl)-amine] | 100 to 1000 | 100 to 1000 | < 5000
10 | CCN(CC)CCNC(=O)c1ccc(Nc2nc3ccc(OC)cc3c3c[nH]nc23)cc1 [Example #222, N-(2-Diethylamino-ethyl)-4-(8-methoxy-2H-pyrazolo[3,4-c]quinolin-4-ylamino)-benzamide] | < 10 | 100 to 1000 | < 5000
11 | COc1ccc2nc(Nc3cnc(N4CCN(C)CC4)nc3)c3n[nH]cc3c2c1 [Example #223, (8-Methoxy-2H-pyrazolo[3,4-c]quinolin-4-yl)-[2-(4-methyl-piperazin-1-yl)-pyrimidin-5-yl]-amine] | 100 to 1000 | 100 to 1000 | < 5000
12 | COc1ccc2nc(Nc3cccc(N4CCN(C)CC4)c3)c3n[nH]cc3c2c1 [Example #228, (8-Methoxy-2H-pyrazolo[3,4-c]quinolin-4-yl)-[3-(4-methyl-piperazin-1-yl)-phenyl]-amine] | 10 to 100 | 100 to 1000 | < 5000
13 | COc1ccc2nc(Nc3cccc(OCCN4CCNCC4)c3)c3n[nH]cc3c2c1 [Example #229, (8-Methoxy-2H-pyrazolo[3,4-c]quinolin-4-yl)-[3-(2-piperazin-1-yl-ethoxy)-phenyl]-amine] | 100 to 1000 | 100 to 1000 | < 5000
14 | COc1ccc2nc(Nc3cnc4c(c3)CN(C)CC4)c3n[nH]cc3c2c1 [Example #230, (8-Methoxy-2H-pyrazolo[3,4-c]quinolin-4-yl)-(6-methyl-5,6,7,8-tetrahydro-[1,6]naphthyridin-3-yl)-amine] | 100 to 1000 | 100 to 1000 | < 5000
15 | COc1ccc2nc(Nc3ccc(C(=O)N4CCOCC4)cc3)c3n[nH]cc3c2c1 [Example #232, [4-(8-Methoxy-2H-pyrazolo[3,4-c]quinolin-4-ylamino)-phenyl]-morpholin-4-yl-methanone] | 10 to 100 | 100 to 1000 | < 5000
16 | COc1ccc2nc(Nc3ccc(CN4CCCC4)cc3)c3n[nH]cc3c2c1 [Example #234, (8-Methoxy-2H-pyrazolo[3,4-c]quinolin-4-yl)-(4-pyrrolidin-1-ylmethyl-phenyl)-amine] | 10 to 100 | 10 to 100 | < 5000

Row | SMILES | Ki (SYK kinase) [nM] | IC50 (LRRK2) [nM] | IC50 (MYLK) [nM]
17 | COc1ccc2nc(Nc3ccc(C(=O)N4CCN(C)CC4)cc3)c3n[nH]cc3c2c1 [Example #235, (4-((8-methoxy-2H-pyrazolo[3,4-c]quinolin-4-yl)amino)phenyl)(4-methylpiperazin-1-yl)methanone] | 10 to 100 | 10 to 100 | < 5000
18 | COc1ccc2nc(Nc3ccc(CN4CCOCC4)cc3)c3n[nH]cc3c2c1 [Example #237, (8-Methoxy-2H-pyrazolo[3,4-c]quinolin-4-yl)-(4-morpholin-4-ylmethyl-phenyl)-amine] | 10 to 100 | 10 to 100 | < 5000
19 | COc1ccc2nc(Nc3ccc(CN4CCN(C)CC4)cc3)c3n[nH]cc3c2c1 [Example #238, (8-Methoxy-2H-pyrazolo[3,4-c]quinolin-4-yl)-[4-(4-methyl-piperazin-1-ylmethyl)-phenyl]-amine] | 10 to 100 | 100 to 1000 | < 5000
20 | CCN1CCN(c2ccc(Nc3nc4c(OC)cccc4c4c[nH]nc34)cc2)CC1 [Example #239, [4-(4-Ethyl-piperazin-1-yl)-phenyl]-(6-methoxy-2H-pyrazolo[3,4-c]quinolin-4-yl)-amine] | 10 to 100 | 100 to 1000 | < 5000
21 | CCN1CCN(c2ccc(Nc3nc4ccc(OC)cc4c4c[nH]nc34)cc2F)CC1 [Example #240, [4-(4-ethyl-piperazin-1-yl)-3-fluorophenyl]-(8-methoxy-2H-pyrazolo[3,4-c]quinolin-4-yl)-amine] | 10 to 100 | 10 to 100 | < 5000
22 | COc1cccc2c1nc(Nc1ccc3c(c1)NC(=O)CCC3)c1n[nH]cc12 [Example #241, 8-((6-methoxy-2H-pyrazolo[3,4-c]quinolin-4-yl)amino)-4,5-dihydro-1H-benzo[b]azepin-2(3H)-one] | 10 to 100 | 100 to 1000 | < 5000
23 | COc1cccc2c1nc(Nc1ccc3[nH]cnc3c1)c1n[nH]cc12 [Example #242, (1H-benzoimidazol-5-yl)-(6-methoxy-2H-pyrazolo[3,4-c]quinolin-4-yl)-amine] | 10 to 100 | 100 to 1000 | < 5000
24 | COc1cccc2nc(Nc3ccc(N4CCN(C5CC5)CC4)cc3)c3n[nH]cc3c12 [Example #243, [4-(4-cyclopropyl-piperazin-1-yl)-phenyl]-(9-methoxy-2H-pyrazolo[3,4-c]quinolin-4-yl)-amine] | 10 to 100 | 100 to 1000 | < 5000
25 | COc1ccc2nc(Nc3ccc(OCCN(C)C)nc3)c3n[nH]cc3c2c1 [Example #245, [6-(2-Dimethylamino-ethoxy)-pyridin-3-yl]-(8-methoxy-2H-pyrazolo[3,4-c]quinolin-4-yl)-amine] | 100 to 1000 | 100 to 1000 | < 5000
26 | COc1cccc2c1nc(Nc1ccc(N3CCOCC3)c(F)c1)c1n[nH]cc12 [Example #246, (3-Fluoro-4-morpholin-4-yl-phenyl)-(6-methoxy-2H-pyrazolo[3,4-c]quinolin-4-yl)-amine] | < 10 | 100 to 1000 | < 5000
27 | COc1cccc2c1nc(Nc1ccc3[nH]c(C)nc3c1)c1n[nH]cc12 [Example #248, (6-Methoxy-2H-pyrazolo[3,4-c]quinolin-4-yl)-(2-methyl-1H-benzoimidazol-5-yl)-amine] | 100 to 1000 | 100 to 1000 | < 5000
28 | COc1cc(OC)c2nc(Nc3ccc(OC)c(OC)c3)c3n[nH]cc3c2c1 [Example #251, (3,4-Dimethoxy-phenyl)-(6,8-dimethoxy-2H-pyrazolo[3,4-c]quinolin-4-yl)-amine] | < 10 | 100 to 1000 | < 5000
29 | COc1cc(OC)c2nc(Nc3ccc(N4CCN(C5CC5)CC4)cc3)c3n[nH]cc3c2c1 [Example #252, [4-(4-Cyclopropyl-piperazin-1-yl)-phenyl]-(6,8-dimethoxy-2H-pyrazolo[3,4-c]quinolin-4-yl)-amine] | 100 to 1000 | 100 to 1000 | < 5000
30 | COc1ccc2nc(Nc3ccc(NCCCN(C)C)nc3)c3n[nH]cc3c2c1 [Example #253, N2-(3-(dimethylamino)propyl)-N5-(8-methoxy-2H-pyrazolo[3,4-c]quinolin-4-yl)pyridine-2,5-diamine] | 100 to 1000 | 100 to 1000 | < 5000
31 | COc1ccc2nc(Nc3ccc(NCCN(C)C)nc3)c3n[nH]cc3c2c1 [Example #254, N2-(2-(dimethylamino)ethyl)-N5-(8-methoxy-2H-pyrazolo[3,4-c]quinolin-4-yl)pyridine-2,5-diamine] | 10 to 100 | 100 to 1000 | < 5000
